Measurements taken from PubChem BioAssay (NCI).
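Briefly, cells in 96-well plates were exposed to five compound concentrations for 48 h, and endpoints were estimated by linear interpolation. TGI denotes the concentration required for complete inhibition of growth.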

How the values were obtained:
Experiment in all cases: DTP human tumour cell line panel, 48 h
K-562 leukemia = tested on: K-562 leukemia
SW-620 colon = tested on: SW-620 colon
MOLT-4 leukemia = tested on: MOLT-4 leukemia
SK-MEL-2 melanoma = tested on: SK-MEL-2 melanoma
A549 NSCLC = tested on: A549 NSCLC
COLO 205 colon = tested on: COLO 205 colon
HOP-92 NSCLC = tested on: HOP-92 NSCLC
A498 renal = tested on: A498 renal
HT29 colon = tested on: HT29 colon
786-0 renal = tested on: 786-0 renal
SF-539 CNS = tested on: SF-539 CNS
HS 578T breast = tested on: HS 578T breast
PC-3 prostate = tested on: PC-3 prostate
MDA-N = tested on: MDA-N
SF-295 CNS = tested on: SF-295 CNS
NCI-H460 lung = tested on: NCI-H460 lung
T-47D breast = tested on: T-47D breast
UACC-257 melanoma = tested on: UACC-257 melanoma
KM12 colon = tested on: KM12 colon
SF-268 CNS = tested on: SF-268 CNS
SR leukemia = tested on: SR leukemia
IGROV1 ovarian = tested on: IGROV1 ovarian
BT-549 breast = tested on: BT-549 breast
SN12C renal = tested on: SN12C renal
NCI-H23 lung = tested on: NCI-H23 lung
HCC-2998 colon = tested on: HCC-2998 colon
UACC-62 melanoma = tested on: UACC-62 melanoma
NCI-H522 lung = tested on: NCI-H522 lung
NCI/ADR-RES ovarian = tested on: NCI/ADR-RES ovarian
HCT-116 colon = tested on: HCT-116 colon
OVCAR-8 ovarian = tested on: OVCAR-8 ovarian
M14 melanoma = tested on: M14 melanoma
DU-145 prostate = tested on: DU-145 prostate
RXF 393 renal = tested on: RXF 393 renal
SK-MEL-28 melanoma = tested on: SK-MEL-28 melanoma
LOX IMVI melanoma = tested on: LOX IMVI melanoma
RPMI-8226 leukemia = tested on: RPMI-8226 leukemia
OVCAR-4 ovarian = tested on: OVCAR-4 ovarian
CAKI-1 renal = tested on: CAKI-1 renal
MALME-3M melanoma = tested on: MALME-3M melanoma
U251 CNS = tested on: U251 CNS
MCF7 breast = tested on: MCF7 breast
NCI-H226 lung = tested on: NCI-H226 lung
SK-MEL-5 melanoma = tested on: SK-MEL-5 melanoma
CCRF-CEM leukemia = tested on: CCRF-CEM leukemia
SK-OV-3 ovarian = tested on: SK-OV-3 ovarian
MDA-MB-231 breast = tested on: MDA-MB-231 breast
HOP-62 NSCLC = tested on: HOP-62 NSCLC
EKVX NSCLC = tested on: EKVX NSCLC
ACHN renal = tested on: ACHN renal
OVCAR-5 ovarian = tested on: OVCAR-5 ovarian
UO-31 renal = tested on: UO-31 renal
SNB-19 CNS = tested on: SNB-19 CNS
TK-10 renal = tested on: TK-10 renal
OVCAR-3 ovarian = tested on: OVCAR-3 ovarian
MDA-MB-435 = tested on: MDA-MB-435
HCT-15 colon = tested on: HCT-15 colon
SNB-75 CNS = tested on: SNB-75 CNS
HL-60(TB) leukemia = tested on: HL-60(TB) leukemia

Measured: TGI

C/C(N=Nc1nc2ccccc2s1)=C1/C=CC=CN1O
57.4 µM: MALME-3M melanoma
60.5 µM: MCF7 breast
3.72 µM: SF-295 CNS
91.6 µM: NCI-H522 lung
98.1 µM: NCI/ADR-RES ovarian
71.2 µM: OVCAR-3 ovarian
61.3 µM: TK-10 renal
60.9 µM: HOP-92 NSCLC
6.03 µM: EKVX NSCLC
> 100 µM: K-562 leukemia | SW-620 colon | MOLT-4 leukemia | SK-MEL-2 melanoma | A549 NSCLC | COLO 205 colon | A498 renal | HT29 colon | 786-0 renal | SF-539 CNS | HS 578T breast | PC-3 prostate | MDA-N | NCI-H460 lung | T-47D breast | UACC-257 melanoma | KM12 colon | SF-268 CNS | SR leukemia | IGROV1 ovarian | BT-549 breast | SN12C renal | NCI-H23 lung | UACC-62 melanoma | HCT-116 colon | OVCAR-8 ovarian | M14 melanoma | DU-145 prostate | RXF 393 renal | SK-MEL-28 melanoma | LOX IMVI melanoma | RPMI-8226 leukemia | OVCAR-4 ovarian | CAKI-1 renal | U251 CNS | NCI-H226 lung | SK-MEL-5 melanoma | CCRF-CEM leukemia | SK-OV-3 ovarian | MDA-MB-231 breast | HOP-62 NSCLC | ACHN renal | UO-31 renal | SNB-19 CNS | MDA-MB-435 | HCT-15 colon
0.0978 µM: HCC-2998 colon
5.95 µM: OVCAR-5 ovarian

COc1cc(OCc2ccc3oc(=O)c(-c4ccccc4)nc3c2)cc(OC)c1OC
> 100 µM: K-562 leukemia | SW-620 colon | MOLT-4 leukemia | SK-MEL-2 melanoma | A549 NSCLC | COLO 205 colon | A498 renal | HT29 colon | 786-0 renal | SF-539 CNS | HS 578T breast | PC-3 prostate | MDA-N | SF-295 CNS | NCI-H460 lung | T-47D breast | UACC-257 melanoma | SF-268 CNS | SR leukemia | IGROV1 ovarian | BT-549 breast | SN12C renal | NCI-H23 lung | HCC-2998 colon | UACC-62 melanoma | NCI-H522 lung | SNB-75 CNS | NCI/ADR-RES ovarian | HCT-116 colon | OVCAR-8 ovarian | M14 melanoma | DU-145 prostate | RXF 393 renal | SK-MEL-28 melanoma | LOX IMVI melanoma | RPMI-8226 leukemia | OVCAR-4 ovarian | MALME-3M melanoma | U251 CNS | MCF7 breast | NCI-H226 lung | SK-MEL-5 melanoma | CCRF-CEM leukemia | SK-OV-3 ovarian | MDA-MB-231 breast | HOP-62 NSCLC | ACHN renal | OVCAR-5 ovarian | UO-31 renal | SNB-19 CNS | TK-10 renal | OVCAR-3 ovarian | MDA-MB-435 | HCT-15 colon

CCCN=Cc1cc(Cc2ccc(O)c(C=NCCC)c2)ccc1O
34.2 µM: COLO 205 colon
59.6 µM: NCI/ADR-RES ovarian
32.1 µM: 786-0 renal
8.97 µM: A498 renal
45.1 µM: NCI-H522 lung
5 µM: HL-60(TB) leukemia
27.8 µM: HCC-2998 colon
13.4 µM: LOX IMVI melanoma
12.3 µM: HCT-15 colon
4.71 µM: K-562 leukemia
57.4 µM: TK-10 renal
10.1 µM: MDA-N
37.7 µM: RXF 393 renal
> 100 µM: BT-549 breast | HOP-62 NSCLC | MDA-MB-435
36.6 µM: OVCAR-5 ovarian
86.1 µM: OVCAR-4 ovarian
22 µM: KM12 colon
9.67 µM: SNB-75 CNS
73.8 µM: CAKI-1 renal
26.2 µM: NCI-H23 lung
7.35 µM: M14 melanoma
17.2 µM: SK-MEL-5 melanoma
52.5 µM: SF-295 CNS
3.71 µM: MOLT-4 leukemia
12.2 µM: SNB-19 CNS
26.4 µM: EKVX NSCLC
46.4 µM: SF-268 CNS
9 µM: SF-539 CNS
82.4 µM: SK-OV-3 ovarian
14.4 µM: OVCAR-3 ovarian
37.2 µM: IGROV1 ovarian
9.22 µM: U251 CNS
5.89 µM: PC-3 prostate
8.03 µM: HOP-92 NSCLC
15.9 µM: SW-620 colon
31.1 µM: DU-145 prostate
7.19 µM: HCT-116 colon
15.3 µM: SN12C renal
51.9 µM: NCI-H460 lung
6.33 µM: T-47D breast
9.59 µM: SK-MEL-2 melanoma
32.3 µM: A549 NSCLC
51.2 µM: NCI-H226 lung
36.3 µM: UO-31 renal
27.6 µM: HT29 colon
6.87 µM: MCF7 breast
50.5 µM: MALME-3M melanoma
20.4 µM: OVCAR-8 ovarian
53.4 µM: ACHN renal
60.8 µM: UACC-257 melanoma
92.2 µM: HS 578T breast
22.7 µM: UACC-62 melanoma
33.5 µM: MDA-MB-231 breast

COc1c2c(c3c(c1CCC(=O)O)OC(C)(C)C=C3)OC(C)(C)C=C2
> 100 µM: K-562 leukemia | SW-620 colon | MOLT-4 leukemia | SK-MEL-2 melanoma | A549 NSCLC | COLO 205 colon | A498 renal | HT29 colon | 786-0 renal | HS 578T breast | PC-3 prostate | MDA-N | HL-60(TB) leukemia | SF-295 CNS | T-47D breast | UACC-257 melanoma | KM12 colon | SF-268 CNS | SR leukemia | IGROV1 ovarian | BT-549 breast | SN12C renal | NCI-H23 lung | HCC-2998 colon | UACC-62 melanoma | NCI-H522 lung | SNB-75 CNS | NCI/ADR-RES ovarian | HCT-116 colon | OVCAR-8 ovarian | M14 melanoma | DU-145 prostate | RXF 393 renal | SK-MEL-28 melanoma | LOX IMVI melanoma | RPMI-8226 leukemia | OVCAR-4 ovarian | CAKI-1 renal | MALME-3M melanoma | U251 CNS | MCF7 breast | NCI-H226 lung | SK-MEL-5 melanoma | SK-OV-3 ovarian | MDA-MB-231 breast | HOP-62 NSCLC | EKVX NSCLC | ACHN renal | OVCAR-5 ovarian | UO-31 renal | SNB-19 CNS | TK-10 renal | OVCAR-3 ovarian | MDA-MB-435 | HCT-15 colon
